From US9937183B2, “Antimicrobial compounds and methods of making and using the same” (priority 2013, dated 2018)
≈ marks a conversion by molar mass, not a printed value. Like-named read-outs stand apart in the source and are kept apart here.

Columns and labels:
Format in all cases: cell-based
[1] = system: E. coli CAG12184 TolC; experiment: MIC, microtiter-based liquid assay (CLSI); conditions: Escherichia coli, CAG12184TOLC
[2] = system: P. aeruginosa 1705886; experiment: MIC, microtiter-based liquid assay (CLSI); conditions: Pseudomonas aeruginosa
[3] = system: P. aeruginosa ATCC27853; experiment: MIC, microtiter-based liquid assay (CLSI); conditions: Pseudomonas aeruginosa
[4] = system: E. faecium A6349 VanA + LNZ-R; experiment: MIC, microtiter-based liquid assay (CLSI); conditions: Enterococcus faecium
[5] = system: B. mallei; experiment: microbe, parasite or virus in culture; conditions: Burkholderia mallei
[6] = system: B. anthracis; experiment: microbe, parasite or virus in culture; conditions: Bacillus anthracis
[7] = system: E. coli MG1655 parent; experiment: MIC, microtiter-based liquid assay (CLSI); conditions: Escherichia coli
[8] = system: B. pseudomallei; experiment: microbe, parasite or virus in culture; conditions: Burkholderia pseudomallei
[9] = system: F. tularensis; experiment: microbe, parasite or virus in culture; conditions: Francisella tularensis
[10] = system: E. coli ATCC25922; experiment: MIC, microtiter-based liquid assay (CLSI); conditions: Escherichia coli
[11] = system: Y. pestis; experiment: microbe, parasite or virus in culture; conditions: Yersinia pestis
[12] = system: A. baumannii 1705936; experiment: MIC, microtiter-based liquid assay (CLSI); conditions: Acinetobacter baumannii, MDR strain
[13] = system: A. baumannii 1705943; experiment: MIC, microtiter-based liquid assay (CLSI); conditions: Acinetobacter baumannii
[14] = system: K. pneumoniae 1705949; experiment: MIC, microtiter-based liquid assay (CLSI); conditions: Klebsiella pneumoniae, MDR strain
[15] = system: K. pneumoniae 1705966; experiment: MIC, microtiter-based liquid assay (CLSI); conditions: Klebsiella pneumoniae
[16] = system: P. aeruginosa 1705904; experiment: MIC, microtiter-based liquid assay (CLSI); conditions: Pseudomonas aeruginosa, MDR strain
[17] = system: S. pneumoniae 02J1175 Mef(A); experiment: MIC, microtiter-based liquid assay (CLSI); conditions: Streptococcus pneumoniae
[18] = system: S. aureus 11540 MRSA; experiment: MIC, microtiter-based liquid assay (CLSI); conditions: Staphylococcus aureus
[19] = system: E. coli 1705878; experiment: MIC, microtiter-based liquid assay (CLSI); conditions: Escherichia coli, MDR strain

CCc1cc(CCC[C@H](C)N)cc(-c2cc3cn(-c4ccc(CNCCCNC(=N)N)cc4)c(=O)nc3[nH]2)c1F [Compound 2]
MIC [1]: 0.125 µg/mL (≈ 0.229 µM)
MIC [2]: 2 µg/mL (≈ 3.66 µM)
MIC [3]: 4 µg/mL (≈ 7.32 µM)
MIC [4]: 2 µg/mL
MIC50 ([5]; read-out: B. mallei MIC50): ≤ 0.03 µg/mL
MIC90 ([5]; read-out: B. mallei MIC90): 0.06 µg/mL (≈ 0.11 µM)
MIC ([5]; read-out: B. mallei MIC Range): 0.03 to 0.25 µg/mL (≈ 0.0549 to 0.457 µM)
MIC50 ([6]; read-out: B. anthracis MIC50): 0.12 µg/mL (≈ 0.22 µM)
MIC90 ([6]; read-out: B. anthracis MIC90): 0.12 µg/mL (≈ 0.22 µM)
MIC ([6]; read-out: B. anthracis MIC Range): 0.03 to 1 µg/mL (≈ 0.0549 to 1.83 µM)
MIC [7]: 0.25 µg/mL (≈ 0.457 µM)
MIC50 ([8]; read-out: B. pseudomallei MIC50): 2 µg/mL (≈ 3.66 µM)
MIC90 ([8]; read-out: B. pseudomallei MIC90): 4 µg/mL (≈ 7.32 µM)
MIC ([8]; read-out: B. pseudomallei MIC Range): 0.5 to 8 µg/mL (≈ 0.915 to 14.6 µM)
MIC50 ([9]; read-out: F. tularensis MIC50): ≤ 0.03 µg/mL
MIC90 ([9]; read-out: F. tularensis MIC90): ≤ 0.03 µg/mL
MIC ([9]; read-out: F. tularensis MIC Range): 0.03 to 0.25 µg/mL (≈ 0.0549 to 0.457 µM)
MIC ([10]; ATCC25922, read-out: MIC E. coli ATCC25922 + 50% HS): 0.25 µg/mL
MIC ([10]; ATCC25922, read-out: MIC E. coli ATCC25922): 0.125 µg/mL (≈ 0.229 µM)
MIC50 ([11]; read-out: Y. pestis MIC50): 0.12 µg/mL (≈ 0.22 µM)
MIC90 ([11]; read-out: Y. pestis MIC90): 0.25 µg/mL (≈ 0.457 µM)
MIC ([11]; read-out: Y. pestis MIC Range): 0.03 to 0.25 µg/mL (≈ 0.0549 to 0.457 µM)
MIC [12]: 4 µg/mL (≈ 7.32 µM)
MIC [13]: 0.25 µg/mL (≈ 0.457 µM)
MIC [14]: 0.5 µg/mL (≈ 0.915 µM)
MIC [15]: 0.25 µg/mL (≈ 0.457 µM)
MIC [16]: 8 µg/mL (≈ 14.6 µM)
MIC [17]: 0.125 µg/mL (≈ 0.229 µM)
MIC [18]: 0.25 µg/mL (≈ 0.457 µM)
MIC [19]: 1 µg/mL (≈ 1.83 µM)
